In ChEMBL document CHEMBL5543140 (J Med Chem, 2024):
Calls of active or inactive are those of the source. The rule behind the calls is not given here.

Assays:
[1] = biological target: T1, 5-hydroxytryptamine receptor 2A (Homo sapiens, UniProt P28223); assay: Displacement of [3H]LSD from human 5-HT2A receptor expressed in HEK293 cell membrane incubated for 90 mins by microbeta liquid scintillation counting method; format: cell membranes
[2] = Metabolic stability of the compound assessed as recombinant human MAO-mediated oxidative metabolism by measuring compound remaining measured upto 120 mins by LC-MS/MS analysis; format: ADME; details: 2 h
[3] = Metabolic stability in Sprague-Dawley rat liver microsomes assessed as deuteration effect measured upto 120 mins by LC-MS/MS analysis; format: ADME, Microsome; details: 2 h
[4] = biological target: T1, 5-hydroxytryptamine receptor 2A; assay: Agonist activity at human 5-HT2A receptor expressed in HEK293 cells assessed as IP2 production measured after 30 mins incubation by HTRF assay; format: functional, cell-based
[5] = Lipophilicity, logP of the compound; format: physicochemical; details: octanol/water
[6] = system: Mus musculus; assay: Psychedelic effect in C57BL/6J mouse assessed as number of head-twitch responses by visual observation at 3 mg/kg, po measured for 3 mins at 160 to 170 min; format: functional; details: 0.05 h
[7] = biological target: T2, 5-hydroxytryptamine receptor 2C (Homo sapiens, UniProt P28335); assay: Displacement of [3H]LSD from human 5-HT2C receptor expressed in HEK293 cell membrane incubated for 90 mins by microbeta liquid scintillation counting method; format: cell membranes
T2 sequence (P28335 whole entry): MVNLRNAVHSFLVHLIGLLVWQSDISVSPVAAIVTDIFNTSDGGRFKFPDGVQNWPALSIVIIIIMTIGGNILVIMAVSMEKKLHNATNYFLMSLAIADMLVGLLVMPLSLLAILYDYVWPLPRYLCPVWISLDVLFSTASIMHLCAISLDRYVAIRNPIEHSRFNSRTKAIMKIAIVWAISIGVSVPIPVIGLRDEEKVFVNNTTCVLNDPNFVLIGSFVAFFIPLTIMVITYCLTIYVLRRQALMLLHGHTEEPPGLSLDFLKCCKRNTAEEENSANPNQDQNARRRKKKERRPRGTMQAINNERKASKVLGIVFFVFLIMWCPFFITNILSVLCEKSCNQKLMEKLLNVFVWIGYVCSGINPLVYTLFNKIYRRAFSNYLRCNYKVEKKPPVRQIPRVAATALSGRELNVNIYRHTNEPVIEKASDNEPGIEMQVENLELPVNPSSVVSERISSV

[8] = system: Mus musculus; assay: Psychedelic effect in C57BL/6J mouse assessed as number of head-twitch responses by visual observation at 3 mg/kg, po measured for 3 mins at 5 to 25 min; format: functional; details: 0.05 h
[9] = biological target: T3, 5-hydroxytryptamine receptor 2B (Homo sapiens, UniProt P41595); assay: Displacement of [3H]LSD from human 5-HT2B receptor expressed in HEK293 cell membrane incubated for 90 mins by microbeta liquid scintillation counting method; format: cell membranes
T3 sequence (P41595 whole entry): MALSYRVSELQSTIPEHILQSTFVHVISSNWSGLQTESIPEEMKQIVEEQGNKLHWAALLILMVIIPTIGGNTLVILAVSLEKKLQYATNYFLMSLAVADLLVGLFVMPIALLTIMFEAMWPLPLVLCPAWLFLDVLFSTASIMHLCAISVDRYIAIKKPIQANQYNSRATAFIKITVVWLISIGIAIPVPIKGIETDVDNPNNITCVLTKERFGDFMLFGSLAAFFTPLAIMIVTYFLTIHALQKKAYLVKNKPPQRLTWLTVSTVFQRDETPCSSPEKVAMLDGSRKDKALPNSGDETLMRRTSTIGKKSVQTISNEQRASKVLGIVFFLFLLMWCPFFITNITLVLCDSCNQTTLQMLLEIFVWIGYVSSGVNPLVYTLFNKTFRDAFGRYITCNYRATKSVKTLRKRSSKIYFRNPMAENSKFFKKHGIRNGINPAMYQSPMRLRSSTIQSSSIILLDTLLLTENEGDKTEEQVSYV

[10] = biological target: Voltage-dependent L-type calcium channel subunit alpha-1C (Homo sapiens, UniProt Q13936); assay: Binding affinity to human Calcium channel L-type (verapamil site) at 10 uM measured after 180 mins by [3H]D888-Radiometric assay relative to control
Voltage-dependent L-type calcium channel subunit alpha-1C, sequence (Q13936 whole entry): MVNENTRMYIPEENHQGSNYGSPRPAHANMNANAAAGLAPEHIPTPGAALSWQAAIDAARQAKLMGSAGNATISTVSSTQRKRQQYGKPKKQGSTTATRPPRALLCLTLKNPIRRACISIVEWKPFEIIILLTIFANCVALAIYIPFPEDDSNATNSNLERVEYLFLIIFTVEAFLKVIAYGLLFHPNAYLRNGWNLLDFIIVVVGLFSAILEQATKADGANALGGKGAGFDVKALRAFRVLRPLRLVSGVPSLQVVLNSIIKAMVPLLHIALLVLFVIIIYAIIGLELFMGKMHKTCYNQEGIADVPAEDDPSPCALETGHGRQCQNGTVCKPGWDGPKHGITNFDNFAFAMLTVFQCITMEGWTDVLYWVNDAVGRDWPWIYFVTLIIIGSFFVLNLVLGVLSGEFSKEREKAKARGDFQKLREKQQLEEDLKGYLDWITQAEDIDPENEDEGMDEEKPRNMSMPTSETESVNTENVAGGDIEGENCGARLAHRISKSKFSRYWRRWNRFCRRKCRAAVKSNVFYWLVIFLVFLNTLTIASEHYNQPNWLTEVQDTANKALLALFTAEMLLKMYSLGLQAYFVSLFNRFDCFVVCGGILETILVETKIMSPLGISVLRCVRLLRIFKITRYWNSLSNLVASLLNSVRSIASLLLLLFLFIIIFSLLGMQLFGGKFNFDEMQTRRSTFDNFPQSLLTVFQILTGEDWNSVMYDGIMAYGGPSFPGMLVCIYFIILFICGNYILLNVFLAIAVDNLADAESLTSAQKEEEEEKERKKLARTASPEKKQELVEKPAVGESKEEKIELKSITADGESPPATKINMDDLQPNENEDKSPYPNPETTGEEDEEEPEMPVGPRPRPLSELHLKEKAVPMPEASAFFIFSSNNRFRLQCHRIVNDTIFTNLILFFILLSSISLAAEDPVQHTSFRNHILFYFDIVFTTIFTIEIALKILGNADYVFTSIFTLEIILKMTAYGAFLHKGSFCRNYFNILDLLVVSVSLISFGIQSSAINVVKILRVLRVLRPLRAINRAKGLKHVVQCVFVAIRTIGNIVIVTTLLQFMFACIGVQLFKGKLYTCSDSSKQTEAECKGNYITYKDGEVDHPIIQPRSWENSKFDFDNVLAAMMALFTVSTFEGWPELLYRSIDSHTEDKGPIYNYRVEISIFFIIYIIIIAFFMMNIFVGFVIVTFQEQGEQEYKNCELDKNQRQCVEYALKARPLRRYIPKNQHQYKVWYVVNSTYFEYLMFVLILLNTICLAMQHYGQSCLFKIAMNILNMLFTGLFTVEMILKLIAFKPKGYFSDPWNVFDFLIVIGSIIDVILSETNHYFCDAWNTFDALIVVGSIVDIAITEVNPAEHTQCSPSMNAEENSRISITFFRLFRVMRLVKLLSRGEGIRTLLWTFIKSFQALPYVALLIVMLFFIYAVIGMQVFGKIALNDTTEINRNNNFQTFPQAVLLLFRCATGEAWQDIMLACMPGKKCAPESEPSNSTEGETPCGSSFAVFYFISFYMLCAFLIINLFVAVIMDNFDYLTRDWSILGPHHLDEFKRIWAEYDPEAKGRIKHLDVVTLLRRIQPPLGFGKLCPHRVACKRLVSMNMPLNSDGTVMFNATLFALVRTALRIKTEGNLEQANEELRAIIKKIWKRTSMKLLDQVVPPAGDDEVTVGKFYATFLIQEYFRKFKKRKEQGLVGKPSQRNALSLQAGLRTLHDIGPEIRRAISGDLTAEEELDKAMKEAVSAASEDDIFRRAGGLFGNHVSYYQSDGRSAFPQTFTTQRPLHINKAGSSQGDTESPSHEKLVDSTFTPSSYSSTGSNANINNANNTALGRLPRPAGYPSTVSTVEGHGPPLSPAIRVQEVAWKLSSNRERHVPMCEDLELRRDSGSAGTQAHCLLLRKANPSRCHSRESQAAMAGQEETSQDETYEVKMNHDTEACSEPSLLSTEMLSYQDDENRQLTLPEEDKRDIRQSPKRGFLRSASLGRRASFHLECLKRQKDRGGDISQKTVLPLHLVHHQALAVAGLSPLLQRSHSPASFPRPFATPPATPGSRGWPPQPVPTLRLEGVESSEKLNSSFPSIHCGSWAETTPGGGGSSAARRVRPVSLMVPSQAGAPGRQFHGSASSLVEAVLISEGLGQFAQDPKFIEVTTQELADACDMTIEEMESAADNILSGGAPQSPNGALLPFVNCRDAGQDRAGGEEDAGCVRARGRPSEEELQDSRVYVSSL

[11] = biological target: 5-hydroxytryptamine receptor 2C (Homo sapiens) (UniProt P28335); assay: Agonist activity at human 5-HT2C receptor expressed in HEK293 cells assessed as maximal IP2 production measured after 30 mins incubation by HTRF assay relative to control; format: functional, cell-based; details: filed as agonist
[12] = system: Mus musculus; assay: Psychedelic effect in C57BL/6J mouse assessed as induction of 5-HT2A receptor dependent maximal head-twitch responses by visual observation at 1 mg/kg, sc at 15 to 220 mins; format: functional, organism-based; details: time lower 15.0 min, time upper […]
[13] = biological target: Muscarinic acetylcholine receptor M4 (Homo sapiens) (UniProt P08173); assay: Displacement of [3H]4-DAMP from human recombinant muscarinic M4 receptor expressed in HEK293 cells at 10 uM incubated for 60 mins by radiometric based scintillation counter assay relative to control; format: cell-based
Muscarinic acetylcholine receptor M4 (Homo sapiens), sequence (P08173 whole entry): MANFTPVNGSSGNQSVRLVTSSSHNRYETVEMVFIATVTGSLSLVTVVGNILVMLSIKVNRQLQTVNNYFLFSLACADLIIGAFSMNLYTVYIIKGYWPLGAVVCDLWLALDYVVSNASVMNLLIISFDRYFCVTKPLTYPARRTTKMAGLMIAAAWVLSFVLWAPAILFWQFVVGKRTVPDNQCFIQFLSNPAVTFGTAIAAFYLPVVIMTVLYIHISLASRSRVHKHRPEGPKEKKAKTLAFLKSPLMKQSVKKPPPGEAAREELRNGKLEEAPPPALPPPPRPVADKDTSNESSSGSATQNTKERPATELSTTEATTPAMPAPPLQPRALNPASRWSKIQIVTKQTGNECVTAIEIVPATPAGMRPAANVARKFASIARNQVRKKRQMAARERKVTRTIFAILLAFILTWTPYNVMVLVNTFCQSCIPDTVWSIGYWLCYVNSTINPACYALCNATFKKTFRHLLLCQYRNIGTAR

[14] = biological target: T3, 5-hydroxytryptamine receptor 2B; assay: Agonist activity at human 5-HT2B receptor expressed in CHO cells assessed as maximal IP2 production measured after 30 mins incubation by HTRF assay relative to control; format: functional, cell-based
[15] = biological target: Muscarinic acetylcholine receptor M1 (Homo sapiens) (UniProt P11229); assay: Displacement of [3H]-Pirenzepine from human muscarinic M1 expressed in CHO-K1 cells membrane at 10 uM incubated for 60 mins by microbeta liquid scintillation counting analysis; format: cell membranes; details: Cell membrane
Muscarinic acetylcholine receptor M1 (Homo sapiens), sequence (P11229 whole entry): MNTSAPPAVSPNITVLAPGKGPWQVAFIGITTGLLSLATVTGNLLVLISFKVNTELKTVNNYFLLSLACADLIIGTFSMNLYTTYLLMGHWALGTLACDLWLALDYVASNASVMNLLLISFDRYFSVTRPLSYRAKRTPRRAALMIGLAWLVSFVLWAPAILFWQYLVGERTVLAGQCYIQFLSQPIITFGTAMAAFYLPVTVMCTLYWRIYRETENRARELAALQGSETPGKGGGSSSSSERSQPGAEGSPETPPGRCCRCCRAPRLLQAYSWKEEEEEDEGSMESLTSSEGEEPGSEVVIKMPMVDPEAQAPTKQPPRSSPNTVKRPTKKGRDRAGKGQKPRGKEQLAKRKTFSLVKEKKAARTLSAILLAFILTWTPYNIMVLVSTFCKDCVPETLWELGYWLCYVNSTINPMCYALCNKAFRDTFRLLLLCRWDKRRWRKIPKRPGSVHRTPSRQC

[16] = biological target: T4, 5-hydroxytryptamine receptor 1A (Homo sapiens) (UniProt P08908); assay: Agonist activity at human 5-HT1A receptor expressed in HEK293T cells co-transfected with 22F-Glosensor assessed as inhibition of cAMP production measured after 30 mins incubation by Microbeta2Micro-plate counter analysis; format: functional, cell-based; details: filed as agonist
T4 sequence (whole entry): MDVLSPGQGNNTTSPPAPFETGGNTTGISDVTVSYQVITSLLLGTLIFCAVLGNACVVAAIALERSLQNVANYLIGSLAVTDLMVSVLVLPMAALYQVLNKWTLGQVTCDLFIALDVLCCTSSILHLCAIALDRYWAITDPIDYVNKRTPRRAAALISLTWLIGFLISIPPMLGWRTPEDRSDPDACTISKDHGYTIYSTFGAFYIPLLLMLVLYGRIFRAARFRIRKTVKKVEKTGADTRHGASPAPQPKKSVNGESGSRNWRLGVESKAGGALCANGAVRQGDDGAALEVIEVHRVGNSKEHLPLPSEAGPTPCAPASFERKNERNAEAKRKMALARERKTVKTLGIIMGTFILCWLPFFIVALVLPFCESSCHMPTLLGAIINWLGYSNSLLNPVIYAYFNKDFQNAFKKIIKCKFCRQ

[17] = biological target: Muscarinic acetylcholine receptor M5 (Homo sapiens) (UniProt P08912); assay: Displacement of [3H]4-DAMP from human recombinant muscarinic M5 receptor expressed in HEK293 cells at 10 uM incubated for 60 mins by radiometric based scintillation counter assay relative to control; format: cell-based
Muscarinic acetylcholine receptor M5 (Homo sapiens), sequence (P08912 whole entry): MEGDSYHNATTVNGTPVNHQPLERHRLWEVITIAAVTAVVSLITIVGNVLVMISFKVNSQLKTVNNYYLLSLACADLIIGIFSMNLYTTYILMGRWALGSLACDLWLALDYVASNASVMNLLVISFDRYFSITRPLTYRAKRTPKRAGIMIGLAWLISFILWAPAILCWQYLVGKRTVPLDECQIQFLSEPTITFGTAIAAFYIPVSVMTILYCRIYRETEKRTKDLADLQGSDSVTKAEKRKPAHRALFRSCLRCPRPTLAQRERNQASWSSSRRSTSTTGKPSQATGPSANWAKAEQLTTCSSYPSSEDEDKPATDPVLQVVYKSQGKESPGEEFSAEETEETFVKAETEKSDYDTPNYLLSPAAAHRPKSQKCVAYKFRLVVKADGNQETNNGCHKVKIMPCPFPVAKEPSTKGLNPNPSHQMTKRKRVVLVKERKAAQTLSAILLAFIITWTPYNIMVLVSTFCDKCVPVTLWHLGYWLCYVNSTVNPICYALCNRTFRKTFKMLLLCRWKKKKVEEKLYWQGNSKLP

[18] = system: Mus musculus; assay: Locomotor activity in C57BL/6J mouse assessed as distance traveled at 1 mg/kg, ip measured for 15 to 25 mins; format: functional; details: time 15-25 min
[19] = biological target: Adrenergic receptor alpha-2 (Rattus norvegicus) (UniProt P22086+P19328+P22909); assay: Displacement of [3H]RX 821002 from rat cerebral cortex alpha2 adrenergic receptor assessed as remaining activity at 10 uM after 60 mins by scintillation counting method relative to control
[20] = system: Mus musculus; assay: Psychedelic effect in C57BL/6J mouse assessed as number of head-twitch responses by visual observation at 3 to 30 mg/kg, po; format: functional, organism-based; details: dose 3-30 mg/kg

T1 sequence (P28223 whole entry): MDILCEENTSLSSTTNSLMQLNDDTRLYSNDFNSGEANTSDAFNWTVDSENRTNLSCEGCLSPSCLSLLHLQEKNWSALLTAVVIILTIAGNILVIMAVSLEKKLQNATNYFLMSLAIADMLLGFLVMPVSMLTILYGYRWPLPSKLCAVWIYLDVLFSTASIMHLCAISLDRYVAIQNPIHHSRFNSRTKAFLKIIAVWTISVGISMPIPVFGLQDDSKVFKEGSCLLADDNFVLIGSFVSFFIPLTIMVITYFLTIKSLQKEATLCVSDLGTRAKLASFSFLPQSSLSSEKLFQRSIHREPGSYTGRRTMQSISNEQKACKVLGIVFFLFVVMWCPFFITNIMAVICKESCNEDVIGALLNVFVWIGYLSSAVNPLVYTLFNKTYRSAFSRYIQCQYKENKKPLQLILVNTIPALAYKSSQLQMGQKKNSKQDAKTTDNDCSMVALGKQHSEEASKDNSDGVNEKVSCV

COc1cc(OCCCF)c(OC)cc1CCN
Ki ([1]; read-out: Ki): 1640 nM
Ki ([1]; read-out: pKi (converted)): 1700 nM

Cl.[2H]C([2H])([2H])Oc1cc(C(F)(F)F)c(OC([2H])([2H])[2H])cc1CCN
Stability [2]: Stable
Stability [3]: Stable

COc1cc(OCCC(F)(F)F)c(OC)cc1CCN
Ki ([1]; read-out: Ki): 477 nM

COc1cc(S(=O)(=O)C(C)(C)C)c(OC)cc1CCN
EC50 ([4]; read-out: EC50): 530 nM

COc1cc(C(=O)C(C)(C)C)c(OC)cc1CCN
logP [5]: 2.34
EC50 ([4]; read-out: EC50): 850 nM

Cl.[2H]C([2H])([2H])Oc1cc(C(C)(C)C)c(OC([2H])([2H])[2H])cc1CCN
Stability [2]: Stable
Stability [3]: Stable

COc1cc(SC(F)F)c(OC)cc1CCN.Cl
Ki ([1]; read-out: pKi (converted)): 6.46 nM
Activity [6]: 17
Ki [7]: 16 nM
Activity [8]: 33
Ki [9]: 24 nM

COc1cc(C(C)=O)c(OC)cc1CCN.Cl
logP [5]: 0.42
EC50 ([4]; hek293): Not Active

Cl.[2H]C([2H])([2H])C(c1cc(OC)c(CCN)cc1OC)(C([2H])([2H])[2H])C([2H])([2H])[2H]
Stability [2]: Stable
Stability [3]: Stable

COc1cc(S(=O)(=O)C(F)(F)F)c(OC)cc1CCN.Cl
Ki ([1]; read-out: Ki): 1.9 nM
Activity [6]: 28
Ki [7]: 13 nM
Activity [8]: 26
Ki [9]: 8.4 nM

COc1cc(SSC(F)(F)F)c(OC)cc1CCN.Cl
Ki ([1]; read-out: Ki): 78 nM
Activity [6]: 3.4
Ki [7]: 67 nM
Activity [8]: 1.8
Ki [9]: 66 nM

COc1cc(CC(C)N)c(OC)cc1I (racemic)
Activity [10]: 56%
Emax [11]: 96%
Activity [12]: Active
inhibition [13]: 76%
EC50 ([14]; read-out: EC50): 7 nM
EC50 ([14]; read-out: pEC50 (converted)): 7.94 nM
inhibition [15]: 72%
Emax [16]: 103%
inhibition [17]: 63%
Activity [18]: 2812 cm
Activity [19]: 82%

COc1cc(SCCC(F)(F)F)c(OC)cc1CCN.Cl
Ki ([1]; read-out: Ki): 10 nM
Activity [6]: 6.1
Ki [7]: 11 nM
Activity [8]: 3.3
Ki [9]: 5.5 nM

Cl.[2H]C([2H])([2H])Oc1cc(C2CCCC2)c(OC([2H])([2H])[2H])cc1CCN
Stability [2]: Stable
Stability [3]: Stable

Cl.[2H]C([2H])([2H])Oc1cc(SC)c(OC([2H])([2H])[2H])cc1C[C@@H](C)N
Stability [2]: Stable
Stability [3]: Stable

COc1cc(P(C)(C)=O)c(OC)cc1CCN.Cl
logP [5]: -1.67
EC50 ([4]; hek293): Not Active

COc1cc(SCC(F)F)c(OC)cc1CCN
Ki ([1]; read-out: Ki): 146 nM

COc1cc(SC(C)(C)C)c(OC)cc1CCN
Activity [20]: inactive
EC50 ([4]; read-out: EC50): 150 nM

Cl.[2H]C([2H])([2H])Oc1cc(SC)c(OC([2H])([2H])[2H])cc1C[C@H](C)N
Stability [2]: Stable
Stability [3]: Stable

COc1cc(SCCCCF)c(OC)cc1CCN
Ki ([1]; read-out: Ki): 47 nM

COc1cc(N(C(C)C)C(C)C)c(OC)cc1CCN.Cl.Cl
logP [5]: 2.7
EC50 ([4]; hek293): Not Active

Cl.[2H]C([2H])([2H])Oc1cc(SC)c(OC([2H])([2H])[2H])cc1CCN
Stability [2]: Stable
Stability [3]: Stable
